{
  "source": "patent US20010003848A1",
  "about": "“DNA SEQUENCES FOR AMMONIUM TRANSPORTER, PLASMIDS, BACTERIA, YEASTS, PLANT CELLS AND PLANTS CONTAINING THE TRANSPORTER” (priority 1993, published 2001)",
  "key": {"[1]": {"tested_on": "yeast line 26972c::pFL61-MEP-a", "assay_type": "cell-based, Saccharomyces cerevisiae", "conditions": "10 mM glucose; for Uptake of ^14C-methylamine in presence of carbonyl cyanide m-chlorophenylhydrazone: 26972c::pF161 MEP-a +CCCP 10 pM; for Uptake of ^14C-methylamine in presence of 0.1 mM dinitrophenol (DNP): 26972c::pFL61-MEP-a +DNP 0.1 mM; for Uptake of ^14C-methylamine: 26972c::pFL61-MEP-a, two independent series", "procedure": "(§1) The yeast lines 26972c::pFL61, 26972c::pFL61-MEP-a and their starting lines S1278b (Dubois & Grenson, 1979, Mol Gen Genet 175: 67-76, MEP-1/MEP-2 ura3) were grown in liquid medium with 1.7 g yeast nitrogen base without ammonium and without amino acids (Difco), 20 g agarose, 1% glucose (w/v), 0.5 mg/l proline until the culture reached the logarithmic phase. After centrifuging of each 25 ml of the culture the cells were washed with 10 mM phosphate pH 7 or pH 4 and taken up in 1.5 ml 10 mM phosphate buffer. Ten minutes before starting the transport measurements, it was made up to an end concentration of 10 mM glucose. […] of the suspension was added to a solution of 10 mM phosphate pH 4 or 7, 100 μM unlabelled methylamine and 5 μCi ^14C-labelled methylamine (0.1 mCi/1.9 μmol) (end concentrations). The uptake of the methylamine was measured after 10, 60, 120 and 180 seconds. For this, to 50 μl of starting material was taken and in a volume of 1 ml H2O+3 mM unlabelled methylamine absorbed on a glass fibre filter. After washing with 10 ml H2O+3 mM unlabelled methylamine the amount of ^14C-labelled methylamine taken up was measured by scintillation (Table Ia and Ib)."}, "[2]": {"tested_on": "yeast strain Σ1278b", "assay": "Uptake of ^14C-methylamine in yeast strain Σ1278b", "assay_type": "cell-based, Saccharomyces cerevisiae", "conditions": "10 mM glucose; for Uptake of ^14C-methylamine in presence of carbonyl cyanide m-chlorophenylhydrazone (CCCP): Σ1278b +CCCP 10 pM; for Uptake of ^14C-methylamine in presence of 0.1 mM dinitrophenol (DNP): Σ1278b +DNP 0.1 mM", "procedure": "as §1"}, "[3]": {"tested_on": "yeast strain 26972c::pFL61", "assay": "Uptake of ^14C-methylamine in yeast strain 26972c::pFL61 (zero control, plasmid without cDNA insertion)", "assay_type": "cell-based, Saccharomyces cerevisiae", "conditions": "10 mM glucose", "procedure": "as §1"}, "[4]": {"tested_on": "Saccharomyces cerevisiae", "conditions": "cited from earlier work"}},
  "note": "Where “and” joins values, the source holds several entries; their conditions need not be identical. Equal entries are not always repeated. Where two headings read alike, the source gives them in different places.",
  "data": [
    {"smiles": "N#CC(C#N)=NNc1cccc(Cl)c1", "note": "[CCCP, carbonyl cyanide m-chlorophenylhydrazone]", "values": [
      {"measurement": "Uptake of ^14C-methylamine in presence of carbonyl cyanide m-chlorophenylhydrazone", "setting": "[1]; pH = 7, 10 sec", "result": 484.60, "unit": "cpm"},
      {"measurement": "Uptake of ^14C-methylamine in presence of carbonyl cyanide m-chlorophenylhydrazone", "setting": "[1]; pH = 7, 60 sec", "result": 1407.00, "unit": "cpm"},
      {"measurement": "Uptake of ^14C-methylamine in presence of carbonyl cyanide m-chlorophenylhydrazone", "setting": "[1]; pH = 7, 120 sec", "result": 2597.92, "unit": "cpm"},
      {"measurement": "Uptake of ^14C-methylamine in presence of carbonyl cyanide m-chlorophenylhydrazone", "setting": "[1]; pH = 7, 180 sec", "result": 3620.36, "unit": "cpm"},
      {"measurement": "Uptake of ^14C-methylamine in presence of carbonyl cyanide m-chlorophenylhydrazone (CCCP)", "setting": "[2]; pH = 7, 10 sec", "result": 173.20, "unit": "cpm"},
      {"measurement": "Uptake of ^14C-methylamine in presence of carbonyl cyanide m-chlorophenylhydrazone (CCCP)", "setting": "[2]; pH = 7, 60 sec", "result": 316.80, "unit": "cpm"},
      {"measurement": "Uptake of ^14C-methylamine in presence of carbonyl cyanide m-chlorophenylhydrazone (CCCP)", "setting": "[2]; pH = 7, 120 sec", "result": 460.40, "unit": "cpm"},
      {"measurement": "Uptake of ^14C-methylamine in presence of carbonyl cyanide m-chlorophenylhydrazone (CCCP)", "setting": "[2]; pH = 7, 180 sec", "result": 608.00, "unit": "cpm"}
    ]},
    {"smiles": "Cl.N", "note": "[NH4Cl]", "values": [
      {"measurement": "Uptake of ^14C-methylamine in presence of 0.5 mM NH4Cl", "setting": "[3]; 26972c::pFL61, pH = 7, 10 sec", "result": 271.60, "unit": "cpm"},
      {"measurement": "Uptake of ^14C-methylamine in presence of 0.5 mM NH4Cl", "setting": "[3]; 26972c::pFL61, pH = 7, 60 sec", "result": 795.80, "unit": "cpm"},
      {"measurement": "Uptake of ^14C-methylamine in presence of 0.5 mM NH4Cl", "setting": "[3]; 26972c::pFL61, pH = 7, 120 sec", "result": 1388.20, "unit": "cpm"},
      {"measurement": "Uptake of ^14C-methylamine in presence of 0.5 mM NH4Cl", "setting": "[3]; 26972c::pFL61, pH = 7, 180 sec", "result": 1773.00, "unit": "cpm"},
      {"measurement": "Uptake of ^14C-methylamine in presence of 0.5 mM NH4Cl", "setting": "[2]; 1278b, pH = 7, 10 sec", "result": 356.60, "unit": "cpm"},
      {"measurement": "Uptake of ^14C-methylamine in presence of 0.5 mM NH4Cl", "setting": "[2]; 1278b, pH = 7, 60 sec", "result": 885.60, "unit": "cpm"},
      {"measurement": "Uptake of ^14C-methylamine in presence of 0.5 mM NH4Cl", "setting": "[2]; 1278b, pH = 7, 120 sec", "result": 1237.80, "unit": "cpm"},
      {"measurement": "Uptake of ^14C-methylamine in presence of 0.5 mM NH4Cl", "setting": "[2]; 1278b, pH = 7, 180 sec", "result": 1597.40, "unit": "cpm"},
      {"measurement": "inhibition of methylamine-uptake functions", "setting": "[4]; both transport functions of Saccharomyces", "result": "inhibitable"}
    ]},
    {"smiles": "O=[N+]([O-])c1ccc(O)c([N+](=O)[O-])c1", "note": "[DNP]", "values": [
      {"measurement": "Uptake of ^14C-methylamine in presence of 0.1 mM dinitrophenol (DNP)", "setting": "[1]; pH = 7, 10 sec", "result": 378.00, "unit": "cpm"},
      {"measurement": "Uptake of ^14C-methylamine in presence of 0.1 mM dinitrophenol (DNP)", "setting": "[1]; pH = 7, 60 sec", "result": 1349.40, "unit": "cpm"},
      {"measurement": "Uptake of ^14C-methylamine in presence of 0.1 mM dinitrophenol (DNP)", "setting": "[1]; pH = 7, 120 sec", "result": 2794.44, "unit": "cpm"},
      {"measurement": "Uptake of ^14C-methylamine in presence of 0.1 mM dinitrophenol (DNP)", "setting": "[1]; pH = 7, 180 sec", "result": 2794.44, "unit": "cpm"},
      {"measurement": "Uptake of ^14C-methylamine in presence of 0.1 mM dinitrophenol (DNP)", "setting": "[2]; pH = 7, 10 sec", "result": 167.20, "unit": "cpm"},
      {"measurement": "Uptake of ^14C-methylamine in presence of 0.1 mM dinitrophenol (DNP)", "setting": "[2]; pH = 7, 60 sec", "result": 386.00, "unit": "cpm"},
      {"measurement": "Uptake of ^14C-methylamine in presence of 0.1 mM dinitrophenol (DNP)", "setting": "[2]; pH = 7, 120 sec", "result": 706.80, "unit": "cpm"},
      {"measurement": "Uptake of ^14C-methylamine in presence of 0.1 mM dinitrophenol (DNP)", "setting": "[2]; pH = 7, 180 sec", "result": 906.00, "unit": "cpm"}
    ]},
    {"smiles": "CN", "note": "[^14C-methylamine, methylamine]", "values": [
      {"measurement": "Uptake of ^14C-methylamine", "setting": "[1]; pH = 4, 10 sec", "result": "204.80 cpm and 214.80 cpm"},
      {"measurement": "Uptake of ^14C-methylamine", "setting": "[1]; pH = 4, 60 sec", "result": "283.80 cpm and 345.60 cpm"},
      {"measurement": "Uptake of ^14C-methylamine", "setting": "[1]; pH = 4, 120 sec", "result": "434.40 cpm and 594.60 cpm"},
      {"measurement": "Uptake of ^14C-methylamine", "setting": "[1]; pH = 4, 180 sec", "result": "479.60 cpm and 842.20 cpm"},
      {"measurement": "Uptake of ^14C-methylamine", "setting": "[1]; pH = 7, 10 sec", "result": "302.80 cpm and 352.20 cpm"},
      {"measurement": "Uptake of ^14C-methylamine", "setting": "[1]; pH = 7, 60 sec", "result": "1247.80 cpm and 1292.20 cpm"},
      {"measurement": "Uptake of ^14C-methylamine", "setting": "[1]; pH = 7, 120 sec", "result": "3152.50 cpm and 3478.28 cpm"},
      {"measurement": "Uptake of ^14C-methylamine", "setting": "[1]; pH = 7, 180 sec", "result": "8490.83 cpm and 6099.39 cpm"},
      {"measurement": "Uptake of ^14C-methylamine", "setting": "[3]; 26972c::pFL61, pH = 4, 10 sec, two independent series", "result": "220.20 cpm and 117.20 cpm"},
      {"measurement": "Uptake of ^14C-methylamine", "setting": "[3]; 26972c::pFL61, pH = 4, 60 sec, two independent series", "result": "200.60 cpm and 138.60 cpm"},
      {"measurement": "Uptake of ^14C-methylamine", "setting": "[3]; 26972c::pFL61, pH = 4, 120 sec, two independent series", "result": "284.80 cpm and 197.40 cpm"},
      {"measurement": "Uptake of ^14C-methylamine", "setting": "[3]; 26972c::pFL61, pH = 4, 180 sec, two independent series", "result": "317.60 cpm and 285.60 cpm"},
      {"measurement": "Uptake of ^14C-methylamine", "setting": "[3]; 26972c::pFL61, pH = 7, 10 sec", "result": 202.20, "unit": "cpm"},
      {"measurement": "Uptake of ^14C-methylamine", "setting": "[3]; 26972c::pFL61, pH = 7, 60 sec", "result": 291.80, "unit": "cpm"},
      {"measurement": "Uptake of ^14C-methylamine", "setting": "[3]; 26972c::pFL61, pH = 7, 120 sec", "result": 524.80, "unit": "cpm"},
      {"measurement": "Uptake of ^14C-methylamine", "setting": "[3]; 26972c::pFL61, pH = 7, 180 sec", "result": 797.80, "unit": "cpm"},
      {"measurement": "Uptake of ^14C-methylamine", "setting": "[2]; 1278b, pH = 7, 10 sec", "result": 469.60, "unit": "cpm"},
      {"measurement": "Uptake of ^14C-methylamine", "setting": "[2]; 1278b, pH = 7, 60 sec", "result": 1022.80, "unit": "cpm"},
      {"measurement": "Uptake of ^14C-methylamine", "setting": "[2]; 1278b, pH = 7, 120 sec", "result": 6176.36, "unit": "cpm"},
      {"measurement": "Uptake of ^14C-methylamine", "setting": "[2]; 1278b, pH = 7, 180 sec", "result": 16826.67, "unit": "cpm"},
      {"measurement": "Uptake of ^14C-methylamine", "setting": "[2]; Σ1278b, pH = 4, 10 sec", "result": 289.00, "unit": "cpm"},
      {"measurement": "Uptake of ^14C-methylamine", "setting": "[2]; Σ1278b, pH = 4, 60 sec", "result": 1151.20, "unit": "cpm"},
      {"measurement": "Uptake of ^14C-methylamine", "setting": "[2]; Σ1278b, pH = 4, 120 sec", "result": 19605.46, "unit": "cpm"},
      {"measurement": "Uptake of ^14C-methylamine", "setting": "[2]; Σ1278b, pH = 4, 180 sec", "result": 32651.43, "unit": "cpm"},
      {"measurement": "maximum speed Vmax", "setting": "[4]; high affinity transporter with low capacity", "result": "20 nmol/min per mg cells (dry weight)"},
      {"measurement": "Km", "setting": "[4]; high affinity transporter with low capacity, read-out: Km value", "result": 250, "unit": "µM"},
      {"measurement": "Vmax", "setting": "[4]; low affinity system with high capacity", "result": 50, "unit": "nmol/min per mg cells"},
      {"measurement": "Km", "setting": "[4]; low affinity system with high capacity, read-out: Km", "result": 2000, "unit": "µM"},
      {"measurement": "Vmax", "setting": "[4]; low affinity system with medium capacity", "result": 33, "unit": "nmol/min per mg cells"},
      {"measurement": "Km", "setting": "[4]; low affinity system with medium capacity, read-out: Km", "result": 20000, "unit": "µM"}
    ]}
  ]
}
